Like-named read-outs stand apart in the source and are kept apart here.

The values below come from patent publication US20250332173A1, “COMPOUNDS AND METHODS FOR MODULATING NUCLEIC ACID SPLICING” (REMIX THERAPEUTICS INC., priority 2021, published 2025).

Format in all cases: cell-based, human
In experiment [1] the test system is SMN2 mRNA. As to the kind of experiment: RT-qPCR splicing assay, SMN2 canonical junction (CJ) mRNA. The note with it: Homo sapiens. In outline: (§1)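 K562/A673 cells, 11-pt 3-fold compound titration from 10 uM final, DMSO ≤0.25%, 24 h 37 °C 5% CO2; lyse (DNase I or Igepal/Tris buffer pH 7.4); RT-qPCR for CJ isoform vs housekeeping gene (GAPDH/GUSB/PPIA).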
(In general: Quantitative PCR measures a nucleic acid by following its amplification.)

For experiment [2], the system named is HTT. As to the kind of experiment: HiBiT protein abundance assay, HTT HiBiT K562 cell line. To be noted: HiBiT K562 cell line, 24 hours, top dose 10 μM; read-out: Effect on protein abundance, HTT (IC50 category). In outline: (§2)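 Tagged-protein abundance measured by split-NanoBiT luminescence after lysis, following 24 h compound exposure (37° C; 10 μM top, 3-fold, 10 points; DMSO ≤0.25%) of HiBiT knock-in K562 cells. Percent response vs DMSO and unmodified-cell controls; 4-parameter logistic interpolation at 50% gave IC50.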
In general terms: The HiBiT peptide binds its large partner to form an active luciferase.

Experiment [3] deals with MYB. Description: HiBiT protein abundance assay, MYB HiBiT K562 cell line. To be noted: HiBiT K562 cell line, 24 hours, top dose 10 μM; read-out: Effect on protein abundance, MYB (IC50 category). An outline of the steps: as §2
In experiment [4] the test system is Target C. Description: RT-qPCR splicing assay panel, Target C canonical junction (CJ) mRNA. To be noted: Homo sapiens. An outline of the steps: as §1
The mark [5] stands for this setting: canonical junction qPCR panel, Table 5, read-out: SMN2 (decrease in CJ mRNA levels, IC50).
Where [6] appears, read: canonical junction qPCR panel, Table 5, read-out: Target C (decrease in CJ mRNA levels, IC50).
[7] abbreviates: Table 5 panel, canonical junction qPCR, compound concentration having 50% response in CJ decrease, read-out: SMN2 IC50 (decrease in CJ mRNA levels).
Where [8] appears, read: Table 5 panel, canonical junction qPCR, compound concentration having 50% response in CJ decrease, read-out: Target C IC50 (decrease in CJ mRNA levels).

Consider `Cc1c(O)c(-c2ncc3c(=O)n(C4CCNC4)ccc3n2)cc2cn(C)nc12` (stereo in doubt) [Compound 1439, (6R)-2-(6-hydroxy-2,7-dimethyl-indazol-5-yl)-6-pyrrolidin-3-yl-pyrido[4,3-d]pyrimidin-5-one], for which the IC50 in experiment [1] (setting [5]) is less than 0.1 µM; in experiment [2], 1 to 10 µM; in experiment [3], 0.1 to 1 µM; in experiment [4] (setting [6]), more than 10 µM.
Taken in the same sequence, the figures for `Cc1c(O)c(-c2ncc3c(=O)n(C4CCNC4)ccc3n2)cc2cn(C)nc12` (stereo in doubt) [Compound 1440, (6S)-2-(6-hydroxy-2,7-dimethyl-indazol-5-yl)-6-pyrrolidin-3-yl-pyrido[4,3-d]pyrimidin-5-one] were less than 0.1 µM, 1 to 10 µM, 0.1 to 1 µM and more than 10 µM.
Taken in the same sequence, the figures for `Cc1c(O)c(-c2ncc3c(=O)n([C@@H]4CC5CC4CN5)ccc3n2)cc2cn(C)nc12` (stereo in doubt) [Compound 1443, 6-[(1R,4R,5R)-2-azabicyclo[2.2.1]heptan-5-yl]-2-(6-hydroxy-2,7-dimethyl-indazol-5-yl)pyrido[4,3-d]pyrimidin-5-one] were less than 0.1 µM, 1 to 10 µM, 0.1 to 1 µM and 1 to 10 µM.
Taken in the same sequence, the figures for `Cc1c(O)c(-c2ncc3c(=O)n(C4C[C@H]5C[C@@H]4CN5)ccc3n2)cc2cn(C)nc12` (stereo in doubt) [Compound 1444, 6-[(1R,4R,5R)-2-azabicyclo[2.2.1]heptan-5-yl]-2-(6-hydroxy-2,7-dimethyl-indazol-5-yl)pyrido[4,3-d]pyrimidin-5-one] were less than 0.1 µM, 0.1 to 1 µM, 0.1 to 1 µM and 0.1 to 1 µM.
On to `Cc1c(O)c(-c2ncc3c(=O)n([C@@H]4C[C@H]5C[C@@H]4CN5)ccc3n2)cc2cn(C)nc12` (stereo in doubt) [Compound 1446, 6-[(1R,4R,5R)-2-azabicyclo[2.2.1]heptan-5-yl]-2-(6-hydroxy-2,7-dimethyl-indazol-5-yl)pyrido[4,3-d]pyrimidin-5-one], for which the IC50 in experiment [1] (setting [5]) was 0.1 to 1 µM; in experiment [2], more than 10 µM; in experiment [3] it was 1 to 10 µM; in experiment [4] (setting [6]), more than 10 µM.
`Cn1cc2cc(-c3ccc4c(=O)n(C5CCNCC5)cnc4c3)ccc2n1` [Compound 182]: the IC50 in experiment [1] (setting [7]) is less than 0.1 µM; in experiment [2], 1 to 10 µM; in experiment [3] it was 0.1 to 1 µM; in experiment [4] (setting [8]) it was 1 to 10 µM.
As for `Cc1cn2nc(-c3ccc4c(=O)n(C5CCNCC5)ncc4c3)cc(C)c2n1` [Compound 186], the IC50 in experiment [1] (setting [7]) was less than 0.1 µM; in experiment [2], 0.1 to 1 µM; in experiment [3], 0.1 to 1 µM; in experiment [4] (setting [8]), 0.1 to 1 µM.
Turning to `Cc1cn2nc(-c3ccc4c(c3F)CCN(C3CCNCC3)C4=O)cc(C)c2n1` [Compound 188], the IC50 in experiment [1] (setting [7]) is less than 0.1 µM; in experiment [2], 1 to 10 µM; in experiment [3] it was 0.1 to 1 µM; in experiment [4] (setting [8]), 1 to 10 µM.
As to `CN1CCC(Nc2ccc3c(=O)n(-c4ccc5cn(C)nc5c4)cnc3c2)CC1` [Compound 203], the IC50 in experiment [1] (setting [7]), in experiment [2], in experiment [3] and in experiment [4] (setting [8]) was more than 10 µM in each case.
For `Cn1cc2ccc(-n3cnc4cc(NC5CCNCC5)ccc4c3=O)cc2n1` [Compound 204], the concentration for half-maximal inhibition (IC50) in experiment [1] (setting [7]), in experiment [2], in experiment [3] and in experiment [4] (setting [8]) was more than 10 µM throughout.
Regarding `Cc1c(O)c(-c2ncc3c(=O)n(C4CCNCC4)cc(C)c3n2)cc2cn(C)nc12` [Compound 1191], the IC50 in experiment [1] (setting [7]) is less than 0.1 µM; in experiment [2], 1 to 10 µM; in experiment [3] it was 1 to 10 µM; in experiment [4] (setting [8]) it was 0.1 to 1 µM.
Turning to `Cc1cn2cc(-c3cc4ccn(C5CCNCC5)c(=O)c4cn3)cc(F)c2n1` [Compound 1196], the IC50 in experiment [1] (setting [7]) is less than 0.1 µM; in experiment [2] it was 0.1 to 1 µM; in experiment [3], less than 0.1 µM; in experiment [4] (setting [8]) it was 0.1 to 1 µM.
As to `Cc1cn2nc(-c3cc4ccn(C5CCNCC5)c(=O)c4cn3)cc(C)c2n1` [Compound 1198, 6-(2,8-dimethylimidazo[1,2-b]pyridazin-6-yl)-2-(piperidin-4-yl)-2,7-naphthyridin-1(2H)-one], the IC50 in experiment [1] (setting [7]), in experiment [2], in experiment [3] and in experiment [4] (setting [8]) was 0.1 to 1 µM throughout.
Take `Cn1cc2cc(-c3cc4ccn(C5CCNCC5)c(=O)c4cn3)c(O)c(F)c2n1` [Compound 1199]: the concentration for half-maximal inhibition (IC50) in experiment [1] (setting [7]) is less than 0.1 µM; in experiment [2], 1 to 10 µM; in experiment [3] it was 1 to 10 µM; in experiment [4] (setting [8]), 1 to 10 µM.
Regarding `Cc1cc(-c2cc3ccn(C4CCNCC4)c(=O)c3cn2)cc2cn(C)nc12` [Compound 1204, 6-(2,7-dimethyl-2H-indazol-5-yl)-2-(piperidin-4-yl)-2,7-naphthyridin-1(2H)-one], the 50% inhibitory concentration (IC50) was less than 0.1 µM in experiment [1] (setting [7]), 0.1 to 1 µM in experiment [2], 0.1 to 1 µM in experiment [3] and 1 to 10 µM in experiment [4] (setting [8]).
As to `Cc1cn2cc(-c3cc4ccn(C5CCNCC5)c(=O)c4cn3)nc(C)c2n1` [Compound 1205, 6-(2,8-dimethylimidazo[1,2-a]pyrazin-6-yl)-2-(piperidin-4-yl)-2,7-naphthyridin-1(2H)-one], the IC50 is less than 0.1 µM in experiment [1] (setting [7]), 0.1 to 1 µM in experiment [2], 0.1 to 1 µM in experiment [3] and 0.1 to 1 µM in experiment [4] (setting [8]).
For `Cc1cc(-c2cc3ccn(C4CCN(C)CC4)c(=O)c3cn2)cc2cn(C)nc12` [Compound 1206, 6-(2,7-dimethyl-2H-indazol-5-yl)-2-(1-methylpiperidin-4-yl)-2,7-naphthyridin-1(2H)-one], the IC50 is less than 0.1 µM in experiment [1] (setting [7]), 1 to 10 µM in experiment [2], 0.1 to 1 µM in experiment [3] and more than 10 µM in experiment [4] (setting [8]).
For `CCN1CCC(n2ccc3cc(-c4cc(C)c5nn(C)cc5c4)ncc3c2=O)CC1` [Compound 1207, 6-(2,7-dimethyl-2H-indazol-5-yl)-2-(1-ethylpiperidin-4-yl)-2,7-naphthyridin-1(2H)-one] the same measures were less than 0.1 µM, 1 to 10 µM, 1 to 10 µM and 1 to 10 µM.
Taken in the same sequence, the figures for `Cc1cc(-c2cc3ccn(C4CCN(C5CC5)CC4)c(=O)c3cn2)cc2cn(C)nc12` [Compound 1208, 2-(1-cyclopropylpiperidin-4-yl)-6-(2,7-dimethyl-2H-indazol-5-yl)-2,7-naphthyridin-1(2H)-one] were 0.1 to 1 µM, more than 10 µM, 1 to 10 µM and more than 10 µM.
Taken in the same sequence, the figures for `Cc1cc(-c2cc3ccn(C4CCN(C5COC5)CC4)c(=O)c3cn2)cc2cn(C)nc12` [Compound 1209, 6-(2,7-dimethyl-2H-indazol-5-yl)-2-(1-(oxetan-3-yl)piperidin-4-yl)-2,7-naphthyridin-1(2H)-one-1] were 0.1 to 1 µM, 0.1 to 1 µM, 0.1 to 1 µM and 0.1 to 1 µM.
As to `Cc1cc(-c2cc3ccn(C4CCN(CCO)CC4)c(=O)c3cn2)cc2cn(C)nc12` [Compound 1210, 6-(2.7-dimethyl-2H-indazol-5-yl)-2-(1-(2-hydroxyethyl)piperidin-4-yl)-2,7-naphthyridin-1(2H)-one], the IC50 in experiment [1] (setting [7]) is 0.1 to 1 µM; in experiment [2], 1 to 10 µM; in experiment [3], 1 to 10 µM; in experiment [4] (setting [8]) it was more than 10 µM.
On to `Cn1cc2cc(-c3ncc4c(=O)n(C5CCNCC5)ccc4n3)c(O)cc2n1` [Compound 1211], for which the IC50 in experiment [1] (setting [7]) is less than 0.1 µM; in experiment [2], 0.1 to 1 µM; in experiment [3], less than 0.1 µM; in experiment [4] (setting [8]) it was 1 to 10 µM.
Regarding `Cn1cc2cc(-c3ncc4c(=O)n(C5CCNCC5)ccc4n3)cc(F)c2n1` [Compound 1212, 2-(7-fluoro-2-methyl-2H-indazol-5-yl)-6-(piperidin-4-yl)pyrido[4,3-d]pyrimidin-5(6H)-one], the IC50 in experiment [1] (setting [7]) is less than 0.1 µM; in experiment [2], less than 0.1 µM; in experiment [3], less than 0.1 µM; in experiment [4] (setting [8]) it was 0.1 to 1 µM.
Consider `Cc1cn2cc(-c3cc4ccn(C5CCNC5)c(=O)c4cn3)cc(C#N)c2n1` (stereo not drawn) [Compound 1214], for which the IC50 in experiment [1] (setting [7]) is 0.1 to 1 µM; in experiment [2], more than 10 µM; in experiment [3], 1 to 10 µM; in experiment [4] (setting [8]), more than 10 µM.
In the case of `Cc1cn2cc(-c3ncc4c(=O)n(C5CCNC5)ccc4n3)cc(F)c2n1` (stereo not drawn) [Compound 1215], the IC50 in experiment [1] (setting [7]) is less than 0.1 µM; in experiment [2], more than 10 µM; in experiment [3] it was 0.1 to 1 µM; in experiment [4] (setting [8]), more than 10 µM.
For the compound `COc1c(-c2cc3ccn(C4CCNCC4)c(=O)c3cn2)cc2cn(C)nc2c1F` [Compound 1219], the IC50 in experiment [1] (setting [7]) is 0.1 to 1 µM; in experiment [2] it was 1 to 10 µM; in experiment [3] it was 0.1 to 1 µM; in experiment [4] (setting [8]), more than 10 µM.
Consider `Cc1cn2cc(-c3ncc4c(=O)n([C@H]5CCNC5)ccc4n3)cc(F)c2n1` [Compound 1220], for which the IC50 in experiment [1] (setting [7]) is less than 0.1 µM; in experiment [2], 0.1 to 1 µM; in experiment [3] it was 0.1 to 1 µM; in experiment [4] (setting [8]), 0.1 to 1 µM.

The IC50 is the concentration that gives 50% inhibition.
